Laboratory results published in US10619133B2, “Engineered living tissue substitute” (NATIONAL UNIVERSITY OF IRELAND, GALWAY, priority 2011, dated 2020).

Key:
[1] = tested on: enzymatic activity; conditions: cited from earlier work
[2] = tested on: human umbilical arterial smooth muscle cells (HUASMC); assay: ECM / collagen-1 deposition in human umbilical arterial smooth muscle cells; assay type: cell-based; conditions: 0, 25, 50, 100 μM ascorbic acid; p>0.05
Protocol: Human lung fibroblasts (WI-38; American Tissue Culture Collection), Human skin fibroblasts (WS-1; American Tissue Culture Collection) were routinely cultured in Dulbecco's modified Eagle medium with 10% fetal bovine serum (FBS), 1% penicillin-streptomycin at 37° C. in a humidified atmosphere of 5% CO2. Commercially available Smooth Muscle Growth Medium-2 (CLONETICS® SmGM®-2) and supplements (SmGM-2 SingleQuots) were used for human umbilical arterial smooth muscle cells (HUASMC; CLONETICS® UASMC-Human Umbilical Artery Smooth Muscle Cells; Lonza CC-2579). Cells were seeded at 50,000 cells/well in 24-well plates and were allowed to attach for 24 hours. […] To induce collagen synthesis, fibroblasts were supplemented with 100 μM L-ascorbic acid phosphate. The HUASMC was supplemented with various concentration of ascorbic acid (0 μM, 25 μM, 50 μM and 100 μM). In some of the experiment commercially available human serum (Lonza, Belgium) was also used as supplement in place of FBS. At the end of culture time points, culture media were collected into separate vials, whereas cell layers were washed twice with Hank's balanced salt solution (HBSS). […] Cell layer and Medium samples were analyzed by SDS-PAGE under nonreducing conditions with Mini-Protean 3 (Bio-Rad Laboratories). […] Collagen bands were quantified by defining each band with the rectangular tool with background subtraction.

Row | SMILES | effect on enzymatic activity [1] | effect of ascorbic acid on ECM deposition [2]
1 | OC[C@H]1O[C@@](CO)(O[C@H]2O[C@H](CO)[C@@H](O)[C@H](O)[C@H]2O)[C@@H](O)[C@@H]1O [Sucrose] | Ineffective | –
2 | O=C1O[C@H]([C@@H](O)CO)C(O)=C1O [ascorbic acid] | – | did not affected ECM deposition
